Data reported in ChEMBL document CHEMBL1136819, “Synthesis, anticholinesterase activity and structure-activity relationships of m-Aminobenzoic acid derivatives” (Bioorg Med Chem Lett, 2003).

Key:
[1] = Partition coefficient (logP); assay type: physicochemical; conditions: octanol/water
[2] = Lethal dose was reported; assay type: ADME
Acetylcholinesterase [3] = target: T1, Acetylcholinesterase (Torpedo californica, UniProt P04058)
Description: Inhibitory activity against acetylcholinesterase (AChE) from Torpedo californica (Reversible type of inhibition)

Acetylcholinesterase [4] = target: T1, Acetylcholinesterase; assay: Inhibitory activity against acetylcholinesterase (AChE) from Torpedo californica (Irreversible type of inhibition); set-up: species or system Tetronarce californica

T1 sequence (P04058 whole entry): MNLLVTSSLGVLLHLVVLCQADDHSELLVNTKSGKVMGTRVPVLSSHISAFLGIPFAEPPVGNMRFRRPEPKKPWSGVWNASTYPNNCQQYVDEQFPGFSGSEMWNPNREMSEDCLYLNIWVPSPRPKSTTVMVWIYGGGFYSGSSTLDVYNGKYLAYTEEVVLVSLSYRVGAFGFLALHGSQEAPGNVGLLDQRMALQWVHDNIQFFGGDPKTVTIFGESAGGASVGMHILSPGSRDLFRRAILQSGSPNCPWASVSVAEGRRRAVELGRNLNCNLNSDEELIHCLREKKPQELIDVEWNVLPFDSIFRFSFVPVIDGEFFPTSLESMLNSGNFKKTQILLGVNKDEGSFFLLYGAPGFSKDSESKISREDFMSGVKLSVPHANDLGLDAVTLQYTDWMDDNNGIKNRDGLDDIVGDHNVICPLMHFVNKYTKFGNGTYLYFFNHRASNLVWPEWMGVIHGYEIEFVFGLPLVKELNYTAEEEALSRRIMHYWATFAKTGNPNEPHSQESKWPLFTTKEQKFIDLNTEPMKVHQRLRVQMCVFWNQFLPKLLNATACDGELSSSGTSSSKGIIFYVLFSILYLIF

Compound	logP [1]	LD50 [2] [mg/kg]	IC50 (Acetylcholinesterase [3]) [nM]	IC50 (Acetylcholinesterase [4]) [nM]
O=C(O)CCC(=O)Nc1cccc(C(=O)O)c1	1.41	> 1000	92.5	
O=C(O)c1cccc(N2C(=O)C=CC2=O)c1	1.48			256
O=C(O)c1cccc(N2C(=O)CCC2=O)c1	1.81	> 1000	33.4	
O=C(O)/C=C\C(=O)Nc1cccc(C(=O)O)c1	1.09	> 1000		357
